Viability data for 50 compounds are collected here from publication PMC11995724, “Antibiotic target discovery by integrated phenotypic and activity-based profiling of electrophilic fragments” (Cell chemical biology, 2025).

The data set can be described thus: in vitro. The conditions noted are these: human, hek293t cells.
As to `C=CC(=O)N1CCOC2(CCCCCC2)C1` [1-L08, 1-{1-oxa-4-azaspiro[5.6]dodecan-4-yl}prop-2-en-1-one], the viability (as a rule, a read-out of living cells in per cent, often relative to untreated cells) at 48 h, 25 µM came to 73.9%. For the compound `NC(=O)Nc1ccc(C(=O)CCl)cc1` [10-J07, [4-(2-chloroacetyl)phenyl]urea], the viability at 48 h, 25 µM was determined as 108%. `O=C(CCl)Nc1ccc(OC(F)F)cc1` [4-J10, 2-chloro-N-[4-(difluoromethoxy)phenyl]acetamide]: the viability at 48 h, 25 µM is 1.07%. Turning to `COc1cc(C=C(C#N)C(N)=O)ccc1OC(F)F` [8-P08, 2-cyano-3-[4-(difluoromethoxy)-3-methoxyphenyl]prop-2-enamide], the viability at 48 h, 25 µM stood at 82.2%. Turning to `C=CC(=O)NC(C)c1ccc(S(=O)(=O)N(C)C)cc1` (centres unmarked) [3-A20, N-{1-[4-(dimethylsulfamoyl)phenyl]ethyl}prop-2-enamide], the viability at 48 h, 25 µM is 51.5%.

Consider `C[C@@H](NC(=O)CCl)c1cnnn1C` [7-F16, 2-chloro-N-[(1R)-1-(1-methyl-1H-1,2,3-triazol-5-yl)ethyl]acetamide], for which the viability at 48 h, 25 µM turned out to be 44.8%. In the case of `C=CC(=O)NC(C)c1ccc(-n2ccnn2)cc1` (centres unmarked) [3-B13, N-{1-[4-(1H-1,2,3-triazol-1-yl)phenyl]ethyl}prop-2-enamide], the viability at 48 h, 25 µM is 59.2%. The value for `CC(Cl)C(=O)N(Cc1ccsc1)C1CC1` (centres unmarked) [7-G11, 2-chloro-N-cyclopropyl-N-[(thiophen-3-yl)methyl]propanamide] was 86.9%; that for `COc1ccc(NC(=O)C(C)Cl)cc1OC` (centres unmarked) [6-F12, 2-chloro-N-(3,4-dimethoxyphenyl)propanamide] was 109%; that for `C=CC(=O)N1CC(C(N)=O)Oc2ccccc21` (centres unmarked) [1-A09, 4-(prop-2-enoyl)-3,4-dihydro-2H-1,4-benzoxazine-2-carboxamide] was 24.7%. On to `CC(Cl)C(=O)NC1CCc2ccccc2-n2ccnc21` (centres unmarked) [7-E06, 2-chloro-N-{2,5-diazatricyclo[8.4.0.0,2,6]tetradeca-1(14),3,5,10,12-pentaen-7-yl}propanamide], for which the viability at 48 h, 25 µM worked out at 88.2%. Turning to `CC(C)C(NC(=O)CCl)c1ccccc1` (centres unmarked) [4-K11, 2-chloro-N-(2-methyl-1-phenylpropyl)acetamide], the viability at 48 h, 25 µM stood at 3.98%. `O=C(CCl)N1CCC(Cc2nc(-c3ccc(F)cn3)no2)CC1` [5-K18, 2-chloro-1-(4-{[3-(5-fluoropyridin-2-yl)-1,2,4-oxadiazol-5-yl]methyl}piperidin-1-yl)ethan-1-one]: the viability at 48 h, 25 µM worked out at 1.83%. Take `Cc1cc(C)c(NC(=O)C(C#N)=Cc2ccc(C)o2)c(C)c1` [9-I17, 2-cyano-3-(5-methylfuran-2-yl)-N-(2,4,6-trimethylphenyl)prop-2-enamide]: the viability at 48 h, 25 µM was determined as 94.3%. With `COc1ccc(CN(C)C(=O)CCl)cc1F` [4-F03, 2-chloro-N-[(3-fluoro-4-methoxyphenyl)methyl]-N-methylacetamide], the viability at 48 h, 25 µM came to 0.725%. Consider `Cc1ccc(C=C(C#N)C(=O)NC(C)C)s1` [9-O11, 2-cyano-3-(5-methylthiophen-2-yl)-N-(propan-2-yl)prop-2-enamide], for which the viability at 48 h, 25 µM was 139%. On to `CC(C)c1ccc(C(NC(=O)CCl)C(C)C)cc1` (centres unmarked) [4-O14, 2-chloro-N-{2-methyl-1-[4-(propan-2-yl)phenyl]propyl}acetamide], for which the viability at 48 h, 25 µM was found to be 0.576%.

Turning to `N#CC(=Cc1cnc2ccccn12)C(=O)NCc1ccccc1` [9-P18, N-benzyl-2-cyano-3-{imidazo[1,2-a]pyridin-3-yl}prop-2-enamide], the viability at 48 h, 25 µM was 127%. The value for `CCN(CC)C(=O)c1ccc(NC(=O)CCl)cc1` [4-C05, 4-(2-chloroacetamido)-N,N-diethylbenzamide] was 0.463%; that for `C=CC(=O)NC1CC2CCC(C1)N2S(C)(=O)=O` (centres unmarked) [2-A18, N-{8-methanesulfonyl-8-azabicyclo[3.2.1]octan-3-yl}prop-2-enamide] was 93.8%; that for `COc1cc([N+](=O)[O-])ccc1NC(=O)CCl` [4-O07, 2-chloro-N-(2-methoxy-4-nitrophenyl)acetamide] was 1.19%.

As to `CC(Cl)C(=O)NCc1cc(-c2ccccc2)on1` (centres unmarked) [7-A13, 2-chloro-N-[(5-phenyl-1,2-oxazol-3-yl)methyl]propanamide], the viability at 48 h, 25 µM came to 74.7%.

For the compound `C=CC(=O)NC(Cc1ccccc1)c1ccccn1` (centres unmarked) [2-K14, N-[2-phenyl-1-(pyridin-2-yl)ethyl]prop-2-enamide], the viability at 48 h, 25 µM amounted to 113%. As to `N#CC(=Cc1ccc(-c2ccccc2F)o1)C(=O)Nc1nccs1` [9-A08, 2-cyano-3-[5-(2-fluorophenyl)furan-2-yl]-N-(1,3-thiazol-2-yl)prop-2-enamide], the viability at 48 h, 25 µM worked out at 110%. Take `C=CC(=O)N1CCC(c2ncc(C(=O)O)o2)CC1` [2-G19, 2-[1-(prop-2-enoyl)piperidin-4-yl]-1,3-oxazole-5-carboxylic acid]: the viability at 48 h, 25 µM turned out to be 101%. The value for `C=CC(=O)N1CCC(C(=O)N2CCC(C(=O)NCC(C)C)CC2)CC1` [3-C17, N-(2-methylpropyl)-1-[1-(prop-2-enoyl)piperidine-4-carbonyl]piperidine-4-carboxamide] was 34.6%; that for `c1nc(N2CCSSCC2)c2c3c(sc2n1)CCCC3` [10-M22, 3-(1,2,5-dithiazepan-5-yl)-8-thia-4,6-diazatricyclo[7.4.0.0,2,7]trideca-1(9),2,4,6-tetraene] was 78.3%; that for `Cc1cc(C(=O)CCl)c(C)n1CC1CCCO1` (centres unmarked) [10-B08, 2-chloro-1-{2,5-dimethyl-1-[(oxolan-2-yl)methyl]-1H-pyrrol-3-yl}ethan-1-one] was 54.2%. Turning to `CC(C)NC(=O)C(C#N)=Cc1c(Cl)nc2ccccn12` [9-A11, 3-{2-chloroimidazo[1,2-a]pyridin-3-yl}-2-cyano-N-(propan-2-yl)prop-2-enamide], the viability at 48 h, 25 µM turned out to be 112%.

As to `C=CC(=O)NC(C)C1(S(C)(=O)=O)CC1` (centres unmarked) [2-P05, N-[1-(1-methanesulfonylcyclopropyl)ethyl]prop-2-enamide], the viability at 48 h, 25 µM is 84.3%. The value for `C=CC(=O)Nc1cc(C)nn1-c1ccccc1F` [2-C15, N-[1-(2-fluorophenyl)-3-methyl-1H-pyrazol-5-yl]prop-2-enamide] was 180%; that for `Cc1cc(C)c(NC(=O)C(C#N)=Cc2ccccc2C)c(C)c1` [8-E13, 2-cyano-3-(2-methylphenyl)-N-(2,4,6-trimethylphenyl)prop-2-enamide] was 37.8%; that for `O=C(CCl)N1N=C(c2cccc(F)c2)CC1c1cccs1` (centres unmarked) [4-E22, 2-chloro-1-[3-(3-fluorophenyl)-5-(thiophen-2-yl)-4,5-dihydro-1H-pyrazol-1-yl]ethan-1-one] was 0.0972%. `N#CC(=Cc1cc(F)ccc1F)C(=O)Nc1ccc(Cl)cc1Cl` [8-O08, 2-cyano-N-(2,4-dichlorophenyl)-3-(2,5-difluorophenyl)prop-2-enamide]: the viability at 48 h, 25 µM was 68.1%. With `CC(Cl)C(=O)NCc1ccc(F)cc1` (centres unmarked) [5-A19, 2-chloro-N-[(4-fluorophenyl)methyl]propanamide], the viability at 48 h, 25 µM stood at 76.2%. With `O=C1C=CC(=O)N1c1ccc(F)cc1F` [10-F15, 1-(2,4-difluorophenyl)-2,5-dihydro-1H-pyrrole-2,5-dione], the viability at 48 h, 25 µM came out at 89.5%.

For the compound `Cc1ncc(CNC(=O)C(C)Cl)n1C` (centres unmarked) [5-J15, 2-chloro-N-[(1,2-dimethyl-1H-imidazol-5-yl)methyl]propanamide], the viability at 48 h, 25 µM was 106%. For `C=CC(=O)NCc1csc(C(C)(C)C)n1` [2-C09, N-[(2-tert-butyl-1,3-thiazol-4-yl)methyl]prop-2-enamide], the viability at 48 h, 25 µM was 86.1%. As to `C=CC(=O)N(Cc1ccc(Cl)o1)C1CCCC12CCOCC2` (centres unmarked) [2-K05, N-[(5-chlorofuran-2-yl)methyl]-N-{8-oxaspiro[4.5]decan-1-yl}prop-2-enamide], the viability at 48 h, 25 µM is 99.7%. As for `COc1ccc(OC)c(N2C(=O)C=CC2=O)c1` [10-N15, 1-(2,5-dimethoxyphenyl)-2,5-dihydro-1H-pyrrole-2,5-dione], the viability at 48 h, 25 µM was 110%. Consider `Cc1ccccc1NC(=O)C(C#N)=Cc1ccc2c(c1)OCCO2` [8-J03, 2-cyano-3-(2,3-dihydro-1,4-benzodioxin-6-yl)-N-(2-methylphenyl)prop-2-enamide], for which the viability at 48 h, 25 µM stood at 93.5%. Take `C=CC(=O)N(CC)CC(=O)N1CC(C)(C)C1c1nccn1C` (centres unmarked) [2-J16, N-{2-[3,3-dimethyl-2-(1-methyl-1H-imidazol-2-yl)azetidin-1-yl]-2-oxoethyl}-N-ethylprop-2-enamide]: the viability at 48 h, 25 µM is 59.5%.

For the compound `O=C(CCl)N(Cc1ccc(Cl)cc1)C12CC3CC(CC(C3)C1)C2` [4-H07, N-(adamantan-1-yl)-2-chloro-N-[(4-chlorophenyl)methyl]acetamide], the viability at 48 h, 25 µM is -0.34%.

On to `Cn1nccc1CN1C[C@@H](F)C[C@H]1CNC(=O)CCl` [5-C04, 2-chloro-N-{[(2S,4S)-4-fluoro-1-[(1-methyl-1H-pyrazol-5-yl)methyl]pyrrolidin-2-yl]methyl}acetamide], for which the viability at 48 h, 25 µM was determined as 117%. As to `CC1CC(NC(=O)C(C)Cl)=NO1` (centres unmarked) [5-J21, 2-chloro-N-(5-methyl-4,5-dihydro-1,2-oxazol-3-yl)propanamide], the viability at 48 h, 25 µM was 97.1%.

With `Cc1cc(C(=O)CCl)c(C)n1CC(N)=O` [10-O16, 2-[3-(2-chloroacetyl)-2,5-dimethyl-1H-pyrrol-1-yl]acetamide], the viability at 48 h, 25 µM stood at 108%. For the compound `C=CC(=O)NCCCc1conc1C` [2-N13, N-[3-(3-methyl-1,2-oxazol-4-yl)propyl]prop-2-enamide], the viability at 48 h, 25 µM stood at 70.3%. On to `N#CC(=Cc1ccc(C#N)cc1)C(=O)Nc1cccc(Cl)c1Cl` [8-J05, 2-cyano-3-(4-cyanophenyl)-N-(2,3-dichlorophenyl)prop-2-enamide], for which the viability at 48 h, 25 µM worked out at 112%. For `C=CC(=O)N1CCCCC1c1noc(C2CC2)n1` (centres unmarked) [3-K12, 1-[2-(5-cyclopropyl-1,2,4-oxadiazol-3-yl)piperidin-1-yl]prop-2-en-1-one], the viability at 48 h, 25 µM amounted to 105%. For the compound `Cc1ccc(C=C(C#N)C(=O)Nc2cccc3ccccc23)cc1` [8-M14, 2-cyano-3-(4-methylphenyl)-N-(naphthalen-1-yl)prop-2-enamide], the viability at 48 h, 25 µM came out at 121%.
